Experimental data from article PMC12301034, “Design and Synthesis of Boronic Chalcones with Dual Anticancer and Anti-Inflammatory Activity” (Molecules, 2025).
Entries after “also recorded” stand apart in the source; their conditions may differ. Read-outs that look alike come from different tables or passages of the source.

Tests used:
[1] = Metabolic stability in human liver microsomes; format: in vitro ADME
Method: The metabolic stability of test compounds and controls [imipramine (Sigma-Aldrich, St. Louis, MO, USA), verapamil (Sigma-Aldrich, St. Louis, MO, USA), and warfarin (Sigma-Aldrich, St. Louis, MO, USA)] were assessed using human pooled liver human microsomes (20 mg/mL) (GIBCO, Frederick, MD, USA) and pooled liver CD1 mouse microsomes (20 mg/mL) (GIBCO, Frederick, MD, USA). […] Microsomal suspensions were thawed and diluted in phosphate buffer to obtain a final concentration of 0.25 mg/mL. A solution of NADPH (Sigma-Aldrich, St. Louis, MO, USA) at […] was also prepared in phosphate buffer. […] The plate was incubated at 37 °C under shaking (100 rpm). […] The reactions were stopped by adding quenching solution (75 μL) consisting of acetonitrile:methanol (1:1) with an internal standard (50 nM). Samples were centrifuged (3500 rpm, 30 min) to remove precipitated microsomal proteins, and the supernatant fractions were analyzed by an LCMS-8045 system (Shimazu, Kyoto, Japan). The chromatographic analysis was performed using a Supelco Ascentis Express C18 column (3 cm × 2.1 mm, 5 μm). The mobile phases consisted of water + 0.1% formic acid (A) and acetonitrile + 0.1% formic acid (B). […] The run time was 2 min, with a sample injection volume of 10 μL and a flow rate of 0.7 mL/min. Metabolic stability was assessed by calculating the peak area ratios (analyte/internal standard) and converting them into the percentage of the compound remaining, using the area ratio at time 0 as 100%.

IL-6 = assay: Anti-inflammatory assay, IL-6 in LPS-stimulated THP-1 cells (CBA); format: cell-based, human; conditions: 2 and 4 µg/mL, 24 h
Method: For this assay, THP-1 (BCRJ cód. 0234) cells were cultured in Roswell Park Memorial Institute (RPMI-1640, Sigma-Aldrich; Saint Louis, MO, USA) media supplemented with 2 mM L-glutamine, 1 mM sodium pyruvate, 1.50 g/L of sodium bicarbonate, and 10% fetal bovine serum. For obtaining Macrophage-like cells, 250,000 cells per well were plated in a 24-well cell culture plate. A total of 20 ng/mL of Forbol 12-miristato-13-acetato (PMA) was added to each well, and the cells were incubated for 48 h at 37 °C with 5% CO2. After the 48 h, the wells were washed with 1X PBS, and fresh RPMI-1640 media was added. The cells were then incubated for 24 h at 37 °C and 5% CO2. For the cell’s stimulations, after the 24 h, the well was washed with PBS and fresh RPMI1640 media without fetal bovine serum added. For the positive controls of the assay, 3 wells were stimulated with LPS (1 ng/µL) diluted in the same volume and media used for the drugs stimulation. Two different concentrations (2 and 4 µg/mL) were evaluated for each molecule, which were determined to be non-cytotoxic through a cell viability assay. After a 24 h period, the supernatant was removed and used in the cytokine quantification assay. A kit for inflammatory cytokines, BD® Cytometric Bead Array CBA Human Inflammatory, was employed for this assay, containing the following human cytokines: IL-8, IL-1β, IL-6, and TNF. […]

[2] = Distribution coefficient (eLogD) by HPLC retention time; format: physicochemical; conditions: Supelco Ascentis Express RP Amide column, pH 7.4, read-out: LogD7.4
Method: The determination of the experimental distribution coefficient (eLogD) was based on the retention time of molecules in the stationary phase using high-performance liquid chromatography (HPLC). Chromatographic analysis was performed on a Supelco Ascentis Express RP Amide HPLC column (5 cm × 2.1 mm, 2.7 μm), with a binary gradient mobile phase consisting of (A) 5% methanol in 10 mM ammonium acetate pH 7.4 and (B) 100% methanol. The mobile phase was eluted as follows: 0 min, 95% A; 0.3 min, 100% A; 5.2 min, 0% A; 5.6 min, 0% A; 5.8 min, 100% A; 7.0 min, 100% A. The total run time was 7 min, with a sample injection volume of 5 μL. Test compounds were prepared by diluting stock solutions (1.0 mg/mL in DMSO) in a mixture of mobile phases A:B (1:1 v/v) containing an internal standard (200 nM), achieving a final concentration of 1.0 μg/mL (final DMSO concentration ≤ 1%). The prepared solutions were transferred to a 96-well plate in duplicate, which was then sealed and introduced into the autosampler for analysis. […]. These reference and control compounds were injected at the beginning and end of the experimental procedure. A calibration graph was obtained by plotting the retention times of the reference compounds against their respective LogD values. The resulting equation (y = mx + b) was used to calculate the eLogD7.4 values for the test compounds and controls. […]

SCC-25 cells = assay: Annexin V-FITC/PI apoptosis/necrosis assay; format: cell-based, human; conditions: SCC-25, 44.3 μM, 24 h
Method: For the assessment of the type of cell death, the treatment groups were 44.3 μM, 22.1 μM, and 9.45 μM compound 5, and the negative control without any treatment (only DMEM medium). Then, after 24 h of treatment, cell suspensions of 1 × 10^6 mL^–^1 (SCC-25) of each experimental condition were labeled, and the assay was performed according to the manufacturer’s protocol with the FITC Annexin V/Dead Cell Apoptosis Kit (Life Technologies, Eugene, OR, USA). Annexin V-FITC conjugated (510 nm) and propidium iodide (PI, 610 nm) fluorescence intensity were detected by automatic reading with the Countess™ II FL Automated Cell Counter (Life Technologies, Carlsbad, CA, USA). The cell population was calculated as a percentage of apoptotic cells labeled only with annexin V-FITC conjugated (green), necrotic cells labeled only as PI (red), and late apoptotic/necrotic cells (green and red).

COc1cccc(C(=O)/C=C/c2cccc(B(O)O)c2)c1 [Compound 5, (E)-(3-(3-(3-methoxyphenyl)-3-oxoprop-1-en-1-yl)phenyl)boronic acid]
intrinsic clearance (Clint) in HLM [1]: high clearance | microsomal CLint at 0.51 μM ([1]; human, microsomes, pH 7.4): 56.8 µL/min/mg | half-life at 0.51 μM ([1]; human, pooled liver microsomes, pH 7.4, read-out: Human Liver Microsome (HLM) T1/2): 48.8 min | microsomal CLint at 0.51 μM ([1]; human, pooled liver microsomes, pH 7.4, read-out: intrinsic clearance (Clint) in HLM): 77 µL/min/mg | reduction of IL-6 levels (IL-6): significantly reduced; also recorded: pronounced reduction | chromatographic logD [2]: 3.92 | viability at 44.3 µM (SCC-25 cells; Homo sapiens, read-out: proportion of viable cells): < 5% | type of cell death (SCC-25 cells; 22.1 μM and 9.45 μM): necrosis; also recorded: predominantly induces necrotic cell death
